Converted amounts (≈) assume the structure as drawn.
Tests used:
[1] = test system: human lung adenocarcinoma A549 cell; test: Inhibition of human lung adenocarcinoma A549 cell growth in vitro (MTT assay); format: cell-based; conditions: 168 h, A549 cells, seven days at 37° C.
Method: Inhibition of human lung adenocarcinoma A549 cell growth in vitro by some compounds of the amino acid derivatives (I)
The cytotoxicity test was performed in microtiter plates, with each well containing 3×10^3 A549 cells in 100 μl Dulbecco's minimum essential medium supplemented with 10% fetal calf serum, penicillin (50 units/ml) and streptomycin (50 μg/ml). The cells were incubated at 37° C. for seven days and the colorimetric MTT (tetrazolium) assay was performed according to the method described by Mosmann (J. Immunol. Methods, 65, 55-63, 1983). MTT [3-(4,5-dimethylthiazol-2-yl)-2,5-diphenyl tetrazolium bromide, made by Sigma] was dissolved in PBS at 5 mg/ml and filtered to sterilize and remove a small amount of insoluble residue. After the culture of A549 cells was terminated, this MTT solution (10 μl per 100μl medium) was added to plates were further incubated at 37° C. for 4 hours. Acid-isopropanol (100 μl of 0.04N HCl in isopropanol) was added to all wells and mixed thoroughly to dissolve the dark blue crystals. After all crystals were dissolved, the plates were read on a 2-wavelength microplate photometer (Model MTP-22; Corona Electric Co., Ltd., Katsuta, Japan) at 550 nm, a reference wavelength of 660 nm. The object compound of this invention was dissolved and diluted in Dulbecco's minimum essential medium and added to the culture to give final concentration of 30μg/ml or less.

[2] = Solubility of FR-900840 substance; format: physicochemical
[3] = Acute toxicity in BDF1 mice by intravenous injection; conditions: mouse, in vivo
Method: Acute toxicity of FR-900840 substance in BDF1 mice by intravenous injection is 180 mg/kg.

[4] = test system: human mammary adenocarcinoma MCF-7 cell; test: Inhibition of human mammary adenocarcinoma MCF-7 cell growth in vitro (MTT assay); format: cell-based; conditions: MCF7, 168 h, MCF-7 cells, seven days at 37° C.
Method: Inhibition of human mammary adenocarcinoma MCF-7 cell growth in vitro by some compounds of the amino acid derivatives (I)
The cytotoxicity test was performed in microtiter plates, with each well containing 3×10^3 MCF-7 cells in 100 μl Eagle's minimum essential medium supplemented with 10% fetal calf serum, sodium pyruvate, nonessential amino acids, penicillin (50 units/ml) and streptomycin (50 μg/ml). The cells were incubated at 37° C. for seven days in humidified atomosphere of 5% carbon dioxide and 95% of air and the colorimetric MTT assay was performed as described in Test 1.
The test compound was dissolved and diluted in Eagle's minimum essential medium and added to the culture to give final concentration of 30 μg/ml or less.

## C[C@@H](O)C(=[N+]=[N-])C(=O)OC[C@H](N)C(=O)O [Example 1, O-[2-diazo-3(R)-hydroxy-1-oxobutyl]-L-serine]
[1]
  IC50: 0.012 ng/mL (≈ 0.0553 nM)
[2]; acetone
  Solubility: insoluble
[2]; benzene
  Solubility: insoluble
[2]; chloroform
  Solubility: insoluble
[2]; diethyl ether
  Solubility: insoluble
[2]; ethanol
  Solubility: sparingly soluble
[2]; ethyl acetate
  Solubility: insoluble
[2]; methanol
  Solubility: sparingly soluble
[2]; water
  Solubility: soluble
[3]
  LD50: 180 mg/kg
[4]
  IC50: 0.0018 ng/mL (≈ 0.00829 nM)

## C[C@@H](O)C(=[N+]=[N-])C(=O)OC[C@H](NC(=O)C(F)(F)F)C(=O)O [Example 2, O-[2-Diazo-3(R)-hydroxy-1-oxobutyl]-N-trifluoroacetyl-L-serine]
[1]
  IC50: 0.0105 ng/mL (≈ 0.0335 nM)
[4]
  IC50: 0.0068 ng/mL (≈ 0.0217 nM)

## C[C@H](O)C(=[N+]=[N-])C(=O)OC[C@H](N)C(=O)O [Example 4, O-[2-Diazo-3(S)-hydroxy-1-oxobutyl]-L-serine]
[1]
  IC50: 0.018 ng/mL (≈ 0.0829 nM)
[4]
  IC50: 0.00082 ng/mL (≈ 0.00378 nM)

## [N-]=[N+]=C(C(=O)OC[C@H](N)C(=O)O)C(O)c1ccccc1 (stereo partly shown) [Example 5]
[1]
  IC50: 0.14 ng/mL (≈ 0.501 nM)
[4]
  IC50: 0.076 ng/mL (≈ 0.272 nM)

## [N-]=[N+]=C(CO)C(=O)OC[C@H](N)C(=O)O [Example 6, O-(2-Diazo-3-hydroxy-1-oxopropyl)-L-serine]
[1]
  IC50: 0.0018 ng/mL (≈ 0.00886 nM)
[4]
  IC50: 0.0017 ng/mL (≈ 0.00837 nM)

Reference: US4939241A, “Amino acid derivatives of antitumor activity” (Fujisawa Pharmaceutical Co., Ltd., priority 1987, dated 1990)
